Molecular target: Chaperonin GroEL (Escherichia coli (strain K12), UniProt P0A6F5)
Assay: Binding affinity to Escherichia coli GroEL expressed in Escherichia coliDH5alpha by ITC assay

Chaperonin GroEL, sequence (P0A6F5 2-548 limits assumed): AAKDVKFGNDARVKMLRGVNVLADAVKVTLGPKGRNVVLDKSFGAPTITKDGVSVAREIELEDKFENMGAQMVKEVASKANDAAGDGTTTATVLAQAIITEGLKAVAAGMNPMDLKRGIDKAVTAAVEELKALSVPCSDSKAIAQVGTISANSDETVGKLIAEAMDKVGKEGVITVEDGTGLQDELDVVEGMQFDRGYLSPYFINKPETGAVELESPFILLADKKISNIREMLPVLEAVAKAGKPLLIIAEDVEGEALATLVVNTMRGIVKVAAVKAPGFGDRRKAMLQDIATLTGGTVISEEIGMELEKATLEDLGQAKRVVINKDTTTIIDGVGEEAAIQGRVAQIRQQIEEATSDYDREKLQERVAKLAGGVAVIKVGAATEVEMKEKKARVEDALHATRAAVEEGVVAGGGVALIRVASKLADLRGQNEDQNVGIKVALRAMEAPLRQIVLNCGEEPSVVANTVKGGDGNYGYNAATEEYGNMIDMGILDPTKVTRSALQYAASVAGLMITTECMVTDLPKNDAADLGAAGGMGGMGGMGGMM

A Kd of 9.8 µM was found for CC1=CCC(C(=O)/N=C2\CC=C(S(=O)(=O)O)c3cc(S(=O)(=O)O)cc(S(=O)(=O)O)c32)=C/C1=N/C(=O)C1=CC=C/C(=N\C(=O)/N=C2\C=CC=C(C(=O)/N=C3/CC(C(=O)/N=C4\CC=C(S(=O)(=O)O)c5cc(S(=O)(=O)O)cc(S(=O)(=O)O)c54)=CC=C3C)C2)C1 in this work.

— BindingDB's records for doi:10.1016/j.bmcl.2019.02.028 (Indiana University School of Medicine, 2019)
